Measured values: the supplement of paper PMC8671470

Experiments:
Details in all cases: 72 h
[1] = test system: HL-60; assay: cell viability (% survival relative to DMSO control); higher = less cytotoxic
Procedure, shortened: (§1)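 HL-60 cells in RPMI 1640 with 10% FBS were rescreened against the full library on 384-well plates at five tenfold concentrations, 1–10,000 nM, in duplicate. Each screen was run with DMSO or 100 nM of one of three metabolic inhibitors, for 72 h at 37 °C, 5% CO2. Viability was read by CellTiter-Glo and normalised to DMSO and 10 μM proteasome-inhibitor wells. Where given, area under the curve came from four-parameter log-logistic fits (drc, PharmacoGx).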

[2] = test system: MV4-11
Procedure, shortened: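 Fifteen myeloid leukaemia lines in RPMI 1640 were treated for 72 h at 37 °C and 5% CO2 with five tenfold doses from 1 to 10,000 nM, in duplicate. ATP luminescence was normalised to vehicle and to a positive control at 10 µM, then fitted with a four-parameter log-logistic model. The IC50 came from these fits.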

[3] = test system: HL-60; assay: area under dose-response curve (viability, 1 nM-10 uM) (fraction (0-1)); higher = more sensitive
Procedure, shortened: as §1

[4] = test system: HL-60; assay: cell viability (% survival relative to DMSO control, bortezomib = 0%); higher = less cytotoxic
Procedure, shortened: (§2)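 Reported values are percent survival from duplicate wells, averaged. Fifteen myeloid leukaemia cell lines were treated in 384-well plates with compounds at 1, 10, 100, 1000 or 10000 nM for 72 h at 37 °C in 5% CO2. Signals from CellTiter-Glo luminescence were scaled with vehicle as 100% and a 10 µM positive control as 0%.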

[5] = test system: HEL; assay: as above
Procedure, shortened: as §2

[6] = test system: LAMA-84; assay: as above
Procedure, shortened: as §2

[7] = test system: KU-812; assay: as above
Procedure, shortened: as §2

[8] = test system: THP-1; assay: as above
Procedure, shortened: as §2

[9] = test system: SHI-1; assay: as above
Procedure, shortened: as §2

[10] = test system: NOMO-1; assay: as above
Procedure, shortened: as §2

[11] = test system: MOLM-13; assay: as above
Procedure, shortened: as §2

[12] = test system: BV-173; assay: as above
Procedure, shortened: as §2

[13] = test system: MV4-11; assay: as above
Procedure, shortened: as §2

[14] = test system: Mono-Mac-6; assay: as above
Procedure, shortened: as §2

[15] = test system: KCL-22; assay: as above
Procedure, shortened: as §2

[16] = test system: KG-1; assay: as above
Procedure, shortened: as §2

[17] = test system: ML-2; assay: as above
Procedure, shortened: as §2

[18] = test system: K-562; assay: as above
Procedure, shortened: as §2

O[C@H]1[C@H]2[C@H](O)CCCN2C[C@H]1O [Swainsonine]
cell viability [%], [1]
Details	0.001 µM	0.01 µM	0.1 µM	1 µM	10 µM
co-treatment: AZD3965 100 nM	97.6	103.58	97.5	98.4	102
co-treatment: DMSO vehicle	99.37	104	102	103	108
co-treatment: GSK2194069 100 nM	98.4	110	97.2	90.3	106
co-treatment: pictilisib 100 nM	101	108	91.9	120	106

Details	IC50 (cell viability) [µM]
[2]	> 10

Details	area under dose-response curve, co-treatment: AZD3965 100 nM	area under dose-response curve, co-treatment: DMSO vehicle	area under dose-response curve, co-treatment: GSK2194069 100 nM	area under dose-response curve, co-treatment: pictilisib 100 nM	cell viability, 1 nM [%]	cell viability, 10 nM [%]	cell viability, 100 nM [%]	cell viability, 1000 nM [%]	cell viability, 10000 nM [%]
[3]	< 0.0301	< 0.0301	< 0.0301	< 0.0301	–	–	–	–	–
[4]	–	–	–	–	107	88	104	95.8	112
[5]	–	–	–	–	99.2	83.9	108	97.3	92.5
[6]	–	–	–	–	112	94	103	99.7	98.6
[7]	–	–	–	–	104	100	100	99.8	109
[8]	–	–	–	–	102	102	106	97.8	101
[9]	–	–	–	–	93.8	110	109	108	102
[10]	–	–	–	–	109	103	99.4	94.7	94.1
[11]	–	–	–	–	97.8	94.2	102	87.7	85.6
[12]	–	–	–	–	98.1	104	98.3	90.8	86.1
[13]	–	–	–	–	102	113	87.2	69.8	69.3
[14]	–	–	–	–	101	106	106	90	102
[15]	–	–	–	–	88.9	92.3	102	98.1	89.9
[16]	–	–	–	–	108	107	92.2	87.9	93.1
[17]	–	–	–	–	97.9	97.7	108	86.4	79.5
[18]	–	–	–	–	109	107	102	101	107

O=C(NNc1ccccc1)c1ccncc1 [PluriSln 1]
cell viability [%], [1]
Details	0.001 µM	0.01 µM	0.1 µM	1 µM	10 µM
co-treatment: AZD3965 100 nM	101	101	96.2	110	36
co-treatment: DMSO vehicle	102	102	102	103	49.8
co-treatment: GSK2194069 100 nM	103.4	103	95.8	104	91.3
co-treatment: pictilisib 100 nM	94.1	107	83.7	116	92.411

Details	IC50 (cell viability) [µM]
[2]	> 10

Details	area under dose-response curve, co-treatment: AZD3965 100 nM	area under dose-response curve, co-treatment: DMSO vehicle	area under dose-response curve, co-treatment: GSK2194069 100 nM	area under dose-response curve, co-treatment: pictilisib 100 nM	cell viability, 1 nM [%]	cell viability, 10 nM [%]	cell viability, 100 nM [%]	cell viability, 1000 nM [%]	cell viability, 10000 nM [%]
[3]	0.0541	0.0377	< 0.0301	< 0.0301	–	–	–	–	–
[4]	–	–	–	–	102	94.1	90.5	109	20.7
[5]	–	–	–	–	95.1	99.2	96.8	105	78.1
[6]	–	–	–	–	88.4	99.4	92.1	106	39.9
[7]	–	–	–	–	93.3	93.8	93.2	102	92.5
[8]	–	–	–	–	97.2	97.1	100	108	95.4
[9]	–	–	–	–	91.5	95.5	93	105	92.6
[10]	–	–	–	–	91	101	91.8	106	89.6
[11]	–	–	–	–	80.5	92	96.7	87.1	25.4
[12]	–	–	–	–	86	93.5	97	104	82.6
[13]	–	–	–	–	92.1	99.2	99.3	109	89.4
[14]	–	–	–	–	106	103	104	110	87.2
[15]	–	–	–	–	89.9	102	99.7	110	41.5
[16]	–	–	–	–	88.5	104	102	98.4	62.8
[17]	–	–	–	–	93.3	97.6	92.8	103	81
[18]	–	–	–	–	93.4	85.7	90.4	86.4	52
